# From patent publication US20240262847A1, “COVALENT RAS INHIBITORS AND USES THEREOF” (Revolution Medicines, Inc., priority 2021, published 2024)
# Target: T1, GDP-loaded K-Ras (1-169) G12D, C51S, C80L, C118S (Homo sapiens, UniProt P01116, C118S/C51S/C80L/G12D)
# T1 construct: GDP-loaded K-Ras (1-169) G12D, C51S, C80L, C118S
# Test: K-Ras G12D(GDP) cross-linking assay (mass spectrometry, percent covalent modification)
# Type: binding
# Settings: at 24 hours, room temperature
# Procedure: Protocol: K-Ras G12D(GDP) Cross-Linking Assay
# Note: While the Following Protocol Outlines the Procedure for K-Ras G12D(GDP), a Person of Skill in the Art May Substitute Other Ras Proteins, and May Also Substitute a Non-Hydrolyzable GTP Analog for GDP to Study GTP Bound Ras Protein.
# GDP-loaded K-Ras (1-169) G12D, C51S, C80L, C118S and GDP-loaded K-Ras (1-169) C51S, C80L, C118S were adjusted to 50 μM in K-Ras assay buffer (12.5 mM HEPES, 75 mM NaCl and 1 mM MgCl2 at pH 7.4). A 5 μL aliquot of each protein solution was added to each well of a 96-well microplate containing 40 μL of assay buffer. Initial compound stocks were prepared in DMSO at 100 times their final assay concentration. Compounds were then diluted 10-fold into K-Ras assay buffer to 10 times their final concentration. A 5 μL aliquot of each diluted compound solution was added to each protein solution in the 96-well microplate to initiate the reaction, which then proceeded at room temperature. Typical final compound concentrations were 2, 10, and 25 μM. At each time point, the reactions were analyzed immediately or quenched with 5 μL of a 5% formic acid solution and kept at 4° C. until analysis. Typical assay endpoints were 1, 6 and 24 h.
# Data collection took place on an Agilent 6230 TOF Mass Spectrometer. Complete reactions were injected onto a C4 reverse-phase column to separate protein from buffer components prior to entering the mass spectrometer. The proteins were eluted from the column by increasing acetonitrile fraction in the mobile phase and fed directly into the mass analyzer. Initial analysis of raw data took place on Agilent MassHunter BioConfirm software and consisted of deconvolution of multiple protein charge states with the maximum entropy algorithm, with a mass step of 1 Da. The heights of all deconvoluted protein masses were exported for further data analysis. The percent modification of each protein was then determined by calculating the peak height of the covalently modified K-Ras species as a percentage of the sum total of K-Ras protein peak height.
row,SMILES,cross-linking to K-Ras G12D
1,"Oc1cc(-c2ncc3c(N4C[C@H]5CC[C@@H](C4)N5C[C@H]4CN4)nc(OC[C@@]45CCCN4C[C@H](F)C5)nc3c2F)c2c(F)cccc2c1 [Compound B3, 4-(4-((1R,5S)-8-(((R)-aziridin-2-yl)methyl)-3,8-diazabicyclo[3.2.1]octan-3-yl)-8-fluoro-2-(((2R,7aS)-2-fluorotetrahydro-1H-pyrrolizin-7a(5H)-yl)methoxy)pyrido[4,3-d]pyrimidin-7-yl)-5-fluoronaphthalen-2-ol]",greater than 0%

# Same assay, conditions: at times up to 24 hours, room temperature
row,SMILES,cross-linking to K-Ras G12D
1,"O=C([C@@H]1CN1)N1C=C(c2ncc3c(N4C[C@H]5CC[C@@H](C4)N5)nc(OC[C@@]45CCCN4C[C@H](F)C5)nc3c2F)c2c(F)cccc2C1 [Compound B24, (4-(4-((1R,5S)-3,8-diazabicyclo[3.2.1]octan-3-yl)-8-fluoro-2-(((2R,7aS)-2-fluorotetrahydro-1H-pyrrolizin-7a(5H)-yl)methoxy)pyrido[4,3-d]pyrimidin-7-yl)-5-fluoroisoquinolin-2(1H)-yl)((S)-aziridin-2-yl)methanone]",no cross-linking
2,"O=C([C@H]1CN1)N1[C@@H]2CC[C@H]1CN(c1nc(OC[C@@]34CCCN3C[C@H](F)C4)nc3c(F)c(-c4cc(O)cc5cccc(F)c45)ncc13)C2 [Compound B1, ((R)-aziridin-2-yl)((1R,5S)-3-(8-fluoro-7-(8-fluoro-3-hydroxynaphthalen-1-yl)-2-(((2R,7aS)-2-fluorotetrahydro-1H-pyrrolizin-7a(5H)-yl)methoxy)pyrido[4,3-d]pyrimidin-4-yl)-3,8-diazabicyclo[3.2.1]octan-8-yl)methanone]",no cross-linking
3,"O=C([C@@H]1CN1)N1[C@@H]2CC[C@H]1CN(c1nc(OC[C@@]34CCCN3C[C@H](F)C4)nc3c(F)c(-c4cc(O)cc5cccc(F)c45)ncc13)C2 [Compound B2, ((S)-aziridin-2-yl)((1R,5S)-3-(8-fluoro-7-(8-fluoro-3-hydroxynaphthalen-1-yl)-2-(((2R,7aS)-2-fluorotetrahydro-1H-pyrrolizin-7a(5H)-yl)methoxy)pyrido[4,3-d]pyrimidin-4-yl)-3,8-diazabicyclo[3.2.1]octan-8-yl)methanone]",no cross-linking
4,"Oc1cc(-c2ncc3c(N4C[C@H]5CC[C@@H](C4)N5C[C@@H]4CN4)nc(OC[C@@]45CCCN4C[C@H](F)C5)nc3c2F)c2c(F)cccc2c1 [Compound B4, 4-(4-((1R,5S)-8-(((S)-aziridin-2-yl)methyl)-3,8-diazabicyclo[3.2.1]octan-3-yl)-8-fluoro-2-(((2R,7aS)-2-fluorotetrahydro-1H-pyrrolizin-7a(5H)-yl)methoxy)pyrido[4,3-d]pyrimidin-7-yl)-5-fluoronaphthalen-2-ol]",no cross-linking
5,"O=C([C@H]1CN1)N1C=C(c2ncc3c(N4C[C@H]5CC[C@@H](C4)N5)nc(OC[C@@]45CCCN4C[C@H](F)C5)nc3c2F)c2c(F)cccc2C1 [Compound B23, (4-(4-((1R,5S)-3,8-diazabicyclo[3.2.1]octan-3-yl)-8-fluoro-2-(((2R,7aS)-2-fluorotetrahydro-1H-pyrrolizin-7a(5H)-yl)methoxy)pyrido[4,3-d]pyrimidin-7-yl)-5-fluoroisoquinolin-2(1H)-yl)((R)-aziridin-2-yl)methanone]",no cross-linking
